biological target: recombinant human GST-Syk (Homo sapiens (Human), UniProt P43405); assay: Homogeneous Time-Resolved Fluorescence (HTRF) assay for the recombinant human Syk enzyme; assay type: biochemical; details: recombinant human GST-Syk 5 pM, ATP 25 μM, read-out: rhSyk IC50
Summary of the method: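 HTRF read-out of phosphorylation of a biotinylated Syk-site peptide (250 nM final) by a GST-tagged human Syk fusion. Reaction initiated with ATP at 25 μM final plus 5 mM magnesium final. Compound potency taken from inhibition of human Syk activity.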

Structure (SMILES) | IC50
Cc1cc(Nc2cc(C(F)(F)F)ccn2)nc(-c2ccc(C3(O)CCCc4cc(C(=O)O)ccc43)nc2)c1 (stereo not shown) [Example 1-21] | 2 nM
Cc1cc(Nc2cc(C(F)(F)F)ccn2)nc(-c2ccc(NC3CCN(C(=O)c4cccc5c4Cc4ccccc4-5)CC3)nc2)c1 [Example 4-54] | 149 nM
Cc1cc(Nc2cc(C(F)(F)F)ccn2)nc(-c2ccc(NC3CCN(C(=O)c4cnn5cccnc45)CC3)nc2)c1 [Example 4-37] | 1 nM
Cc1cc(Nc2cc(C(F)(F)F)ccn2)nc(-c2ccc(C3(O)CCC(C(=O)O)CC3)nc2)c1 (stereo not shown) [Example 1-19] | 3 nM
Cc1cc(Nc2cc(C(F)(F)F)ccn2)nc(-c2ccc(NC3CCN(C(=O)c4nccc5ncccc45)CC3)nc2)c1 [Example 4-35] | 3 nM
Cc1cc(Nc2cc(C(F)(F)F)ccn2)nc(-c2ccc(C3(O)CCC(C(=O)O)CC3)nc2)c1 (stereo not shown) [Example 1-18] | 1 nM
Cc1cc(Nc2cc(C(F)(F)F)ccn2)nc(-c2ccc(N3CCC(C4CCCCC4C(=O)O)CC3)nc2)c1 (stereo not shown) [Example 3-1] | 3 nM
Cc1cc(Nc2cc(C(F)(F)F)ccn2)nc(-c2ccc(C3(O)CCCc4cc(C(=O)O)ccc43)nc2)c1 (stereo not shown) [Example 1-22] | 1 nM
Cc1cc(Nc2cc(C(F)(F)F)ccn2)nc(-c2ccc(NC3CCN(C(=O)c4ccc5ccccc5n4)CC3)nc2)c1 [Example 4-24] | 7 nM
Cc1cc(Nc2cc(C(F)(F)F)ccn2)nc(-c2ccc(NC3CCN(C(=O)c4cc5ccccc5cn4)CC3)nc2)c1 [Example 4-61] | 4 nM
Cc1cc(Nc2cc(C(F)(F)F)ccn2)nc(-c2ccc(NC3CCN(C(=O)c4cccc(N(C)C)c4)CC3)nc2)c1 [Example 4-42] | 4 nM
Cc1cc(Nc2cc(C(F)(F)F)ccn2)nc(-c2ccc(NC3CCN(C(=O)c4nn(-c5ccccc5)nc4C)CC3)nc2)c1 [Example 4-30] | 137 nM
Cc1cc(Nc2cc(C(F)(F)F)ccn2)nc(-c2ccc(N3CCCC(C(=O)N4CCCC(C(=O)O)C4)C3)nc2)c1 (stereo not shown) [Example 2-27] | 2 nM
CC(=O)N1CCC(Nc2ccc(-c3cc(C)cc(Nc4cc(C(F)(F)F)ccn4)n3)cn2)CC1 [Example 4-16] | 4 nM
Cc1cc(Nc2cc(C(F)(F)F)ccn2)nc(-c2ccc(NC3CCC(C(=O)O)CC3)nc2)c1 (stereo not shown) [Example 2-24] | 1 nM
CCc1ccc(OCC(=O)N2CCC(Nc3ccc(-c4cc(C)cc(Nc5cc(C(F)(F)F)ccn5)n4)cn3)CC2)cc1 [Example 4-56] | 39 nM
Cc1cc(Nc2cc(C(F)(F)F)ccn2)nc(-c2ccc(N3CCC(C(=O)N4CCC(C(=O)O)CC4)CC3)nc2)c1 [Example 2-26] | 3 nM
Cc1cc(Nc2cc(C(F)(F)F)ccn2)nc(-c2ccc(NC3CCNC3=O)nc2)c1 (stereo not shown) [Example 2-16] | 6 nM
Cc1cc(Nc2cc(C(F)(F)F)ccn2)nc(-c2ccc(N3CCCC(NC(=O)OC(C)(C)C)C3)nc2)c1 (stereo not shown) [Example 2-2] | 271 nM
Cc1cc(Nc2cc(C(F)(F)F)ccn2)nc(-c2ccc(NC3CCN(C(=O)c4cn(Cc5ccccc5)c5ccccc45)CC3)nc2)c1 [Example 4-60] | 422 nM
Cc1cc(Nc2cc(C(F)(F)F)ccn2)nc(-c2ccc(NC3CCN(C(=O)Cc4ccc5ccccc5c4)CC3)nc2)c1 [Example 4-41] | 58 nM

Other lines, results leading:

IC50 | Structure (SMILES)
74 nM | Cc1cc(Nc2cc(C(F)F)ccn2)nc(-c2ccc(C(C)(O)[C@H]3CC[C@H](C(=O)OCC(C)C)CC3)nc2)c1 (single isomer, unassigned) [Example 19-6, 2-methylpropyl trans-4-[(1R or 1S)-1-(6-{[4-(difluoromethyl)pyridin-2-yl]amino}-4-methyl-2,3′-bipyridin-6′-yl)-1-hydroxyethyl] cyclohexanecarboxylate]
6 nM | Cc1cc(Nc2cc(C(F)(F)F)ccn2)nc(-c2ccc(NC3CCN(C(=O)Cc4ccccc4C#N)CC3)nc2)c1 [Example 4-70]
3 nM | Cc1cc(Nc2cc(C(F)(F)F)ccn2)nc(-c2ccc(NC3CCN(C(=O)Cc4cccc(O)c4)CC3)nc2)c1 [Example 4-83]
21 nM | Cc1cc(Nc2cc(C(F)(F)F)ccn2)nc(-c2ccc(NC3CCN(C(=O)Cc4ccc(Cl)cc4)CC3)nc2)c1 [Example 4-73]
4 nM | CC(=O)Nc1ccc(C(=O)N2CCC(Nc3ccc(-c4cc(C)cc(Nc5cc(C(F)(F)F)ccn5)n4)cn3)CC2)cc1 [Example 4-79]
23 nM | Cc1cc(Nc2cc(C(F)(F)F)ccn2)nc(-c2ccc([C@]3(O)CC[C@H](C(N)=O)C(C)(C)C3)nc2)c1 (single isomer, unassigned) [Example 8, (1S,4S or 1R,4R)-4-Hydroxy-2,2-dimethyl-4-(4-methyl-6-{[4-(trifluoromethyl)pyridin-2-yl]amino}-2,3′-bipyridin-6′-yl)cyclohexanecarboxamide]
47 nM | Cc1cc(Nc2cc(C(F)F)ccn2)nc(-c2ccc(C(C)(O)[C@H]3CC[C@H](C(=O)OC4CCCCC4)CC3)nc2)c1 (single isomer, unassigned) [Example 19-12, cyclohexyl trans-4-[(1R or 1S)-1-(6-{[4-(difluoromethyl)pyridin-2-yl]amino}-4-methyl-2,3′-bipyridin-6′-yl)-1-hydroxyethyl] cyclohexanecarboxylate]
178 nM | Cc1cc(Nc2cc(C(F)(F)F)ccn2)nc(-c2ccc(NC3CCN(C(=O)c4cccc5c4oc4ccccc45)CC3)nc2)c1 [Example 4-67]
112 nM | Cc1cc(Nc2cc(C(F)(F)F)ccn2)nc(-c2ccc(C3(O)CCN(C(=O)c4[nH]c5ccccc5c4C)CC3)nc2)c1 [Example 9-5]
4 nM | Cc1cc(Nc2cc(C(F)(F)F)ccn2)nc(-c2ccc(NC3CCN(C(=O)c4ccc(F)c(O)c4)CC3)nc2)c1 [Example 4-115]
35 nM | Cc1cc(Nc2cc(C(F)F)ccn2)nc(-c2ccc(C(C)(O)[C@H]3CC[C@H](C(=O)OCc4ccccc4)CC3)nc2)c1 (single isomer, unassigned) [Example 19-1, benzyl trans-4-[(1R or 1S)-1-(6-{[4-(difluoromethyl)pyridin-2-yl]amino}-4-methyl-2,3′-bipyridin-6′-yl)-1-hydroxyethyl] cyclohexanecarboxylate]
5 nM | Cc1cc(Nc2cc(C(F)(F)F)ccn2)nc(-c2ccc(N3CCCC(NC(N)=O)C3)nc2)c1 (stereo not shown) [Example 7-1]
4.3 nM | CC(=O)OC(C)OC(=O)[C@H]1CC[C@H](C(C)(O)c2ccc(-c3cc(C)cc(Nc4cc(C(F)F)ccn4)n3)cn2)CC1 (single isomer, unassigned) [Example 21-2, 1-(acetyloxy)ethyl trans-4-[(1R or 1S)-1-(6-{[4-(difluoromethyl)pyridin-2-yl]amino}-4-methyl-2,3′-bipyridin-6′-yl)-1-hydroxyethyl] cyclohexanecarboxylate]
3 nM | Cc1cc(Nc2cc(C(F)(F)F)ccn2)nc(-c2ccc(NC3CCN(C(=O)c4ccc5ncccc5c4)CC3)nc2)c1 [Example 4-111]
4.3 nM | COC(=O)COC(=O)[C@H]1CC[C@H](C(C)(O)c2ccc(-c3cc(C)cc(Nc4cc(C(F)F)ccn4)n3)cn2)CC1 (single isomer, unassigned) [Example 19-17, 2-methoxy-2-oxoethyl trans-4-[(1R or 1S)-1-(6-{[4-(difluoromethyl)pyridin-2-yl]amino}-4-methyl-2,3′-bipyridin-6′-yl)-1-hydroxyethyl] cyclohexanecarboxylate]
20 nM | Cc1cc(Nc2cc(C(F)(F)F)ccn2)nc(-c2ccc(NC3CCN(C(=O)c4nccc5ccccc45)CC3)nc2)c1 [Example 4-65]

Source: patent US9145391B2, “Bipyridylaminopyridines as Syk inhibitors” (Merck Sharp & Dohme Corp., priority 2011, dated 2015)
